Test in all cases: inhibition of tumour cell growth, NCI panel, 48 h
Experiment [1] relates to SK-MEL-2 melanoma.
Experiment [2] concerns SK-MEL-5 melanoma.
Experiment [3] has as its system MCF7 breast.
For experiment [4], the system named is CCRF-CEM leukemia.
Experiment [5] has as its system SK-MEL-28 melanoma.
For experiment [6], the system named is SNB-75 CNS.
Experiment [7] relates to K-562 leukemia.
In experiment [8] the test system is NCI/ADR-RES ovarian.
For experiment [9], the system named is OVCAR-3 ovarian.
Experiment [10] concerns SNB-19 CNS.

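Compound exposure: 48 hours, 5 concentrations, 96-well plates. Here, GI50 denotes the concentration required for 50% inhibition of growth. TGI marks complete inhibition of growth.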

As for `CC([C@H]1CCC2C3CCC4C[C@@H](N)CC[C@]4(C)C3CC[C@@]21C)N(C)C` (stereo not given in full), the GI50 in [1] was 8.45 µM; in experiment [2] it was 1.95 µM; in experiment [3] it was 4.17 µM; in experiment [4] it was 6.69 µM; in [5] it was 1.91 µM; in experiment [6], 8.15 µM. The GI50 in [7] was 2.27 µM; in [8], 15.1 µM; in experiment [9], 6.96 µM; in experiment [10] it was 15.8 µM. Further, the TGI in experiment [1] is 21.3 µM; in [2], 5.23 µM; in experiment [3], 18.1 µM; in experiment [4] it was 23.3 µM; in [5] it was 3.66 µM; in experiment [6], 24.9 µM. For the same compound, the TGI in experiment [7] was 7.34 µM; in experiment [8], 48.7 µM; in [9] it was 21.2 µM; in experiment [10], 32.7 µM.
On to `CC(=[N-])N1CCC[C@@H](Nc2c3ccccc3nc3ccccc23)C1.[Cl][Pt].[NH-]CCC[NH-]`, for which the GI50 was 2.28 µM in experiment [1]; 0.127 µM in [2]; 0.357 µM in [3]; 1.58 µM in [4]; 0.21 µM in experiment [5]; 2.72 µM in [6]. Moreover, the GI50 was 0.375 µM in [7], 46 µM in [8], 0.763 µM in experiment [9] and 1.49 µM in experiment [10]. Also, the TGI was 7.23 µM in [1]; 0.291 µM in experiment [2]; more than 100 µM in experiment [3]; more than 100 µM in [4]; 2.31 µM in [5]; 10.1 µM in experiment [6]. Further, the TGI in experiment [7] was more than 100 µM; in [8], more than 100 µM; in experiment [9] it was more than 41.6 µM; in experiment [10], more than 100 µM.
In the case of `NS(=O)(=O)NCCNc1nonc1C(=Nc1ccc(F)c(Br)c1)NO`, the GI50 in experiment [1] was 27.8 µM; in experiment [2], 31.9 µM; in [3] it was 32.9 µM; in experiment [4] it was 49.8 µM; in [5], 48.3 µM; in experiment [6], 15.2 µM. For the same compound, the GI50 is 35.4 µM in experiment [7], more than 100 µM in experiment [8], 34.6 µM in experiment [9] and 48.2 µM in experiment [10]. The TGI was 97 µM in experiment [1]; more than 100 µM in [2]; more than 100 µM in experiment [3]; more than 100 µM in experiment [4]; more than 100 µM in [5]; more than 100 µM in experiment [6]. For the same compound, the TGI in experiment [7], in experiment [8], in experiment [9] and in experiment [10] was more than 100 µM in each case.
With `CC1=C(C(=O)Nc2cc(Cl)c3[nH]ncc3c2)C(c2ccc(C(F)(F)F)cc2)CC(=O)N1` (stereo not given), the GI50 was more than 25 µM in experiment [1]; 11.4 µM in experiment [2]; more than 16.1 µM in experiment [3]; 13.8 µM in experiment [4]; more than 25 µM in experiment [5]; 3.13 µM in experiment [6]. Moreover, the GI50 in experiment [7], in [8], in [9] and in experiment [10] was more than 25 µM throughout. In addition, the TGI in experiment [1], in experiment [2], in experiment [3], in experiment [4], in [5] and in experiment [6] was more than 25 µM in each case. In addition, the TGI in experiment [7], in experiment [8], in experiment [9] and in [10] was more than 25 µM in each case.
In the case of `C/C(O)=C(\C#N)C(=O)Nc1ccc(C(F)(F)F)cc1`, the GI50 in experiment [1] was 73.2 µM; in experiment [2], 15.9 µM; in experiment [3], 38.5 µM; in [4] it was 18.5 µM; in [5], 69.5 µM; in experiment [6], more than 100 µM. The GI50 was 8.13 µM in experiment [7], 21.4 µM in experiment [8], 37 µM in experiment [9] and 24.5 µM in experiment [10]. In addition, the TGI in experiment [1], in [2], in [3], in [4], in experiment [5] and in experiment [6] was more than 100 µM in each case. The TGI in [7], in [8], in experiment [9] and in [10] was more than 100 µM in each case.
Take `CC(=O)c1c(CO[N+](=O)[O-])n([O-])c2ccccc2[n+]1=O`: the TGI in experiment [1], in experiment [2], in experiment [3], in experiment [4], in experiment [5] and in experiment [6] was more than 100 µM in each case. Further, the TGI in experiment [7], in experiment [8], in experiment [9] and in [10] was more than 100 µM in each case.
For the compound `CCOC(=O)c1cc(-c2ccccc2)[nH]c1N/N=C/c1ccc(Cl)cc1`, the GI50 in experiment [1] was 62.6 µM; in [2], 28.4 µM; in experiment [3], 19.5 µM; in experiment [4], 5.86 µM; in [5] it was more than 100 µM; in experiment [6], more than 100 µM. The GI50 in experiment [7] was 28.4 µM; in experiment [8] it was 52.6 µM; in [9], more than 100 µM; in experiment [10], more than 100 µM. For the same compound, the TGI in experiment [1], in [2], in experiment [3], in [4], in [5] and in experiment [6] was more than 100 µM each time. The TGI in experiment [7], in [8], in [9] and in experiment [10] was more than 100 µM each time.
In the case of `O=[N+]([O-])c1cc(C(F)(F)F)ccc1Sc1ccc(C(F)(F)F)cc1[N+](=O)[O-]`, the GI50 in experiment [1] is 3.32 µM; in [2] it was 16.7 µM; in experiment [3], 9.39 µM; in experiment [4], 3.47 µM; in experiment [5], 13.2 µM; in [6], more than 100 µM. The GI50 was 3.49 µM in experiment [7], 8.19 µM in [8], 5.11 µM in experiment [9] and 70.2 µM in [10]. The TGI in experiment [1] was 9.96 µM; in experiment [2] it was more than 100 µM; in experiment [3], more than 100 µM; in experiment [4] it was more than 100 µM; in experiment [5], more than 100 µM; in [6], more than 100 µM. The TGI is more than 100 µM in [7], more than 100 µM in experiment [8], 54.9 µM in experiment [9] and more than 100 µM in [10].
As to `Oc1c(Cl)cc(Cl)cc1C(c1cc(Cl)cc(Cl)c1O)C(Cl)(Cl)Cl`, the GI50 in experiment [1] was 2.72 µM; in experiment [2], 1.21 µM; in experiment [3] it was 2.7 µM; in [4] it was 2.86 µM; in experiment [5], 4.18 µM; in experiment [6] it was 3.75 µM. The GI50 in [7] was 1.1 µM; in [8], 1.99 µM; in experiment [9], 2.4 µM; in experiment [10], 3.23 µM. In addition, the TGI came out at 12 µM in [1]; 2.73 µM in experiment [2]; 14.2 µM in experiment [3]; 24.8 µM in experiment [4]; 17.8 µM in experiment [5]; 17.4 µM in [6]. For the same compound, the TGI in [7] was found to be 20.4 µM; in experiment [8], 7.25 µM; in [9] it was 10.8 µM; in experiment [10], 15.8 µM.
`CN(CC(=O)Nc1nc2ccccc2[nH]1)S(=O)(=O)c1ccc(Cl)cc1`: the GI50 was 2.92 µM in experiment [1]; more than 100 µM in experiment [2]; more than 100 µM in experiment [3]; more than 100 µM in [4]; more than 100 µM in experiment [5]; 22.1 µM in experiment [6]. Also, the GI50 in [7], in experiment [8], in experiment [9] and in experiment [10] was more than 100 µM throughout. Besides, the TGI in [1] was more than 100 µM; in [2] it was more than 100 µM; in experiment [3], more than 100 µM; in [4], more than 100 µM; in [5], more than 100 µM; in experiment [6], 78.8 µM. Further, the TGI in experiment [7], in [8], in experiment [9] and in [10] was more than 100 µM in each case.
In the case of `Cc1cn2c(/C=N/N=C(N)N)c(-c3ccccn3)nc2s1`, the GI50 was 14 µM in experiment [1]; 7.95 µM in experiment [2]; 10.2 µM in [3]; 12.3 µM in experiment [4]; 11.6 µM in [5]; 7.66 µM in [6]. For the same compound, the GI50 in experiment [7] was 19.5 µM; in experiment [8], more than 27.1 µM; in experiment [9], 17.3 µM; in experiment [10], 15.1 µM. The TGI in experiment [1] was 48.1 µM; in [2], 25.8 µM; in [3], more than 68.2 µM; in experiment [4] it was more than 100 µM; in experiment [5], 36.9 µM; in experiment [6], 19.3 µM. Besides, the TGI in experiment [7] is more than 100 µM; in [8], more than 67.8 µM; in [9] it was 34.2 µM; in experiment [10] it was 35.8 µM.
